In test [1] the target is T1, WT KIR2.1 (Homo sapiens, UniProt P63252).
T1 construct: expressed in transfected cells; host or cells: HEK293T
T1 sequence (P63252 1-427): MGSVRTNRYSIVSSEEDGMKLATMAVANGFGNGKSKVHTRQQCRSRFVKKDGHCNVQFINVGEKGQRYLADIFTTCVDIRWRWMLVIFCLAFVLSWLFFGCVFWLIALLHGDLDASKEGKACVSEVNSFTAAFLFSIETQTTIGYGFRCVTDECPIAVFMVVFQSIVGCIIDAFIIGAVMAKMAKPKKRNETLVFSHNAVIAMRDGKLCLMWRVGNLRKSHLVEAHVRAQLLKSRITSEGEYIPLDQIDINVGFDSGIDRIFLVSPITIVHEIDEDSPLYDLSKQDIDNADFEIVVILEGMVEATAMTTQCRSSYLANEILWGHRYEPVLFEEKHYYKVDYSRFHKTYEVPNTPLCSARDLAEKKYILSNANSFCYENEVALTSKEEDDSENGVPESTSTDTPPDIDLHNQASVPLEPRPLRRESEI
The test can be described thus: Inside-out patch clamp, ramp protocol, WT KIR2.1 currents. The settings on record: inside-out mode, HEK293T, 21 °C. It is filed as cell-based. An excerpt:
(§1) Mutations V93I and D172N were engineered into a human KCNJ2-pcDNA3 expression construct, using the QuikChange II XL Site-Directed Mutagenesis Kit (Stratagene, La Jolla, CA) and custom designed primers. The presence of the introduced mutations was confirmed by Sanger sequencing.
(§2) HEK293T cells were transfected with WT, V93I or D172N constructs together with a GFP expression construct to enable detection of transfected cells. Inside-out patch clamp measurements were made using a HEKA EPC-10 Double Plus amplifier controlled by PatchMaster 2.10 software (HEKA, Lambrecht/Pfalz, Germany) at 21 °C. To record WT, V93I and D172N KIR2.1 currents, inside-out patch-clamp measurements were performed using a ramp protocol ranging from −100 to +100 mV in 5 s from a holding potential of −40 mV. Excised patches were placed in close proximity to the inflow region of the perfusion chamber. Bath solution contained 125 mM KCl, 4 mM EDTA (2K), 7.2 mM K2HPO4, 2.8 mM KH2PO4, pH 7.20/KOH. Pipette solution contained 145 mM KCl, 1 mM CaCl2, 5 mM HEPES, pH 7.40/KOH. Measurements were started following washout of polyamines/Mg^2+ from the channel pore observed by the disappearance of current rectification. For IC50 curves, fractional block at −80 and +50 mV was determined by dividing current levels obtained with PA-6 containing solutions by current levels of control traces recorded in the absence of PA-6.

In test [2] the target is T2, D172N KIR2.1 (Homo sapiens, UniProt P63252, D172N).
T2 construct: expressed in transfected cells; host or cells: HEK293T
T2 sequence (P63252 1-427 D172N): T1 sequence (P63252 1-427) with D172N
The test can be described thus: Inside-out patch clamp, ramp protocol, D172N KIR2.1 currents. The settings on record: inside-out mode; for IC50: HEK293T, 21 °C. It is filed as cell-based.
Excerpt: as §1, §2

In test [3] the test system is IK1 / KIR2.1 ion channel. Further details: method as in PMID 23625347. The following applies: inside-out patch clamp methodology; read-out: IC50, IK1 inhibition; cited from earlier work.
Setting [4] is: at +50 mV, read-out: IC50, outward current.
[5] abbreviates: at −80 mV, read-out: IC50, inward current.

Structures are written as SMILES. Substitutions are numbered along the chain they refer to. Read-outs that look alike come from different tables or passages of the source.

In the case of `N=C(Nc1ccc(OCCCCCOc2ccc(NC(=N)c3ccccc3)cc2)cc1)c1ccccc1` [PA-6], the IC50 in test [1] (setting [4]) was 35.5 nM; in test [1] (setting [5]), 52.9 nM; in test [2] (setting [4]), 129 nM; in test [2] (setting [5]), 109 nM; in test [3], 14 nM. Also, in test [2], the “Sensitivity of D172N channels relative to WT and V93I” value is “approximately two to three fold less sensitive”.

(Values after paper PMC5513211, “PA-6 inhibits inward rectifier currents carried by V93I and D172N gain-of-function KIR2.1 channels, but increases channel protein expression” (Journal of Biomedical Science, 2017).)
